Results published in patent US8785631B2, “Oxazolone derivative compounds having a 3-oxa-1-azaspiro[4.5] core” (Seikagaku Corporation, priority 2006, dated 2014).
*1 amine or outer side, *2 acyl side, *3 side chain or, on linkers, in order; H or OH if unused. Where a SMILES comes first, the peptide text is derived from it. [ ]: non-standard residue; d: D form. The star is where a group is joined. Ac6c = NC1(C(=O)O)CCCCC1; Morpholide = C1CN(*)CCO1; Nle = CCCC[C@H](N)C(=O)O; Cbz = O=C(OCc1ccccc1)*; CO = O=C([*:1])[*:2]

Columns and labels:
Human cathepsin B = molecular target: T1, Human cathepsin B (Homo sapiens, UniProt P07858); experiment: Measurement of cathepsin B inhibitory activity; format: biochemical; settings: selectivity ratio B/K
T1 construct: purchased Calbiochem Corp
Protocol: (§1) Human cathepsin B (Calbiochem Corp.) was used for measurement. Activity was measured based on decomposition of the fluorescent substrate Z-Arg-Arg-MCA (Peptide Institute, Inc.) in compliance with the method of Barrett, et al.^3). Namely, the decomposition of 20 mM Z-Arg-Arg-MCA by cathepsin B was measured in 100 mM sodium potassium phosphate, 1 mM EDTA, 8 mM cysteine and 0.005% Brij35 at pH 6.0. The reaction was carried out for 30 minutes at 30° C., and stopped by the addition of 2×10^−5 M Calpeptin. After stopping the reaction, fluorescent intensity was measured at an excitation wavelength of 355 nm and measurement wavelength of 460 nm. Inhibition of cathepsin B by the compounds was examined using the reaction system described above.

Human cathepsin L = molecular target: T2, Human cathepsin L (Homo sapiens, UniProt P07711); experiment: Measurement of cathepsin L inhibitory activity; format: biochemical; settings: selectivity ratio L/K
T2 construct: purchased Calbiochem Corp
T2 sequence (P07711 114-333): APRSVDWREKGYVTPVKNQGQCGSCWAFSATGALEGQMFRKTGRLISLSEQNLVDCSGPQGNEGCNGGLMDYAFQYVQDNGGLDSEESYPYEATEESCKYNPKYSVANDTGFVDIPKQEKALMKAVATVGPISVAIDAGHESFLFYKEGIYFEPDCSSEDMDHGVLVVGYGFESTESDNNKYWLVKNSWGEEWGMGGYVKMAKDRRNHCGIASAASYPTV
Protocol: as §1, with “cathepsin L” for “cathepsin B”, “substrate Z-Phe-Arg-MCA” for “substrate Z-Arg-Arg-MCA”, “[…] Z-Phe-Arg-MCA” for “mM Z-Arg-Arg-MCA”, “sodium acetate, 5” for “sodium potassium phosphate, 1”, “EDTA, 4 mM urea,” for “EDTA,”, “pH 5.5.” for “pH 6.0.”

Structure (SMILES)	B/K (ratio of IC50 cathepsin B to cathepsin K) (Human cathepsin B)	L/K (ratio of IC50 cathepsin L to cathepsin K) (Human cathepsin L)
CC(C)[C@@H](C=O)NC(=O)C1(NC(=O)OCc2ccccc2)CCCCC1 [Reference Example 144, N-[[1-[[(Phenylmethoxy)carbonyl]amino]cyclohexyl]carbonyl]-L-valinal] (Cbz-[Ac6c]-Val-aldehyde)	230	400
CCCC[C@@H](C=O)NC(=O)C1(NC(=O)OCc2ccccc2)CCCCC1 [Reference Example 145, N-[[1-[[(Phenylmethoxy)carbonyl]amino]cyclohexyl]carbonyl]-L-norleucinal] (Cbz-[Ac6c]-[Nle]-aldehyde)	35	50
CC(C)[C@@H](C=O)NC(=O)C1(NC(=O)c2ccco2)CCCCC1 [Reference Example 146, N-[[1-[(2-Furanylcarbonyl)amino]cyclohexyl]carbonyl]-L-valinal]	87	370
CCCC[C@@H](C=O)NC(=O)C1(NC(=O)N2CCOCC2)CCCCC1 [Reference Example 147, N-[[1-[(4-Morpholinylcarbonyl)amino]cyclohexyl]carbonyl]-L-norleucinal] ({Morpholide-CO}-[Ac6c]-[Nle]-aldehyde)	12	21
CCCC[C@@H](C=O)NC(=O)[C@H](CC(C)C)NC(=O)OCc1ccccc1 [Reference Example 149, N—[N-[(Phenylmethoxy)carbonyl]-L-leucyl]-L-norleucinal]	11	15

More lines, now with the values ahead:

B/K (ratio of IC50 cathepsin B to cathepsin K) (Human cathepsin B)	L/K (ratio of IC50 cathepsin L to cathepsin K) (Human cathepsin L)	Structure (SMILES)
58	74	CC(C)C[C@H](NC(=O)OCc1ccccc1)C(=O)N[C@H](C=O)C(C)C [Reference Example 148, N—[N-[(Phenylmethoxy)carbonyl]-L-leucyl]-L-valinal] (Cbz-Leu-Val-aldehyde)
4.3	7.3	CCCC[C@@H](C=O)NC(=O)[C@H](CC(C)C)NC(=O)N1CCOCC1 [Reference Example 150, N—[N-(4-Morpholinylcarbonyl)-L-leucyl]-L-norleucinal]
30	35	CC(C)C[C@H](NC(=O)c1ccco1)C(=O)N[C@H](C=O)C(C)C [Reference Example 151, N—[N-(2-Furanylcarbonyl)-L-leucyl]-L-valinal]
